The values below come from the METLIN SMRT retention time set (Domingo-Almenara et al. 2019).

Molecules are shown by their SMILES.

This data set is described as follows: gradient 5% acetonitrile 3 min, to 50% in 2 min, to 85% in 15 min, held 3 min, 100 µL/min. Particulars: column: Zorbax Extend-C18 2.1 x 50 mm; eluents: water / acetonitrile, 0.1% formic acid. The gist of the method:
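Mixtures of ~100 pure standards were chromatographed on a Zorbax Extend-C18 column (2.1 × 50 mm, 1.8 μm) at 100 μL/min using water and acetonitrile, each with 0.1% formic acid. Detection used a quadrupole time-of-flight mass spectrometer in positive and negative ionization mode, and data collection spanned 3 months. Retention time was obtained from adduct peaks picked computationally and each checked manually.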
The compound `CCOc1ccccc1-c1nc(Cc2nc(-c3ccc(OC)cc3)oc2C)no1` gave an RP-LC retention time of 1160 s.
As for `O=C(CSc1nnc2c3cc(-c4ccccc4)nn3ccn12)Nc1ccccc1Br`, the figure is 908 s; as for `Cc1nc(C)c(C(=O)Nc2ccc(F)cc2C)s1`, 799 s; as for `Cc1ccc(C)c(S(=O)(=O)N2CCC(C)(C(=O)NCc3ccccc3C)CC2)c1`, 1050 s.
To `O=S(=O)(c1ccc2nncn2c1)N(Cc1cc(F)cc(F)c1)c1cccc(F)c1` belongs 895 s; to `CCc1ccc(CNC(=O)c2c(O)c3cccnc3[nH]c2=O)cc1`, 1040 s; to `COc1ccc2cccc(NC(=O)c3c[nH]c4ccccc34)c2n1`, 986 s.
With `CSc1ccc(-c2noc(Cn3c(=O)n(-c4cccc(C)c4)c(=O)c4sccc43)n2)cc1`, the RP-LC retention time is 1070 s.
As for `COc1ccc(-c2noc(-c3nnn4c3COC(c3ccc(F)cc3)C4)n2)cc1` (stereo unspecified), the figure is 1120 s.
The compound `c1ccc(-c2noc(-c3cccnc3N3CCN(c4ccccc4)CC3)n2)cc1` came in with an RP-LC retention time of 1280 s.
With `Cc1c(C(=O)N2CCN(C(=O)COc3ccccc3)CC2)[nH]c2ccccc12`, the RP-LC retention time worked out at 819 s.
On to `COc1ccc(N2CC(c3nc4ccccc4n3CCN3CCOCC3)CC2=O)cc1` (stereo unspecified), for which the RP-LC retention time was 600 s.
As to `CC(C)Cn1ccc2c(cc(C(=O)NCCCN3CCOCC3)n2C)c1=O`, the RP-LC retention time worked out at 594 s.
To `CC(C)NC(=O)N1CCCC(c2cccc(C(=O)NCc3ccccc3F)c2)C1` (stereo unspecified) belongs 854 s.
Regarding `COc1ccccc1C(=O)N1CCC2(CC1)NC(=O)c1cc(Cl)ccc1N2C`, the RP-LC retention time came out at 787 s.
The compound `CN1C(=O)[C@H]2CN(Cc3ccccc3C#N)C[C@H]2C1=O` yielded an RP-LC retention time of 650 s.
In the case of `Cc1ccc(NC(=O)c2cccn2Cc2noc(C3CC3)n2)c(Cl)c1`, the RP-LC retention time was determined as 1030 s.
For `O=C(c1ccc(Cn2c(=O)c3cccn3c3cccnc32)o1)N1CCN(c2ccccn2)CC1`, the RP-LC retention time was determined as 615 s.
As for `COc1ccccc1-n1c(SCC(=O)Nc2ncn[nH]2)nc2ccccc2c1=O`, the figure is 642 s; as for `CC1=NOC(C)(CNC(=O)NC2CCCCC2)C1` (stereo unspecified), 659 s.
In turn, `Cc1nc(-c2ccncc2)nc2c1CCC(=O)N2CCCN(C)C` displayed an RP-LC retention time of 549 s.
The compound `CCn1c(=O)c(C(=O)NC2CC2)nc2cc(C)c(C)cc21` came in with an RP-LC retention time of 887 s.
`CC(C)Cn1c(=O)c(-c2ccc(C(=O)N3CCN(C)CC3)cc2)nc2ccccc21`: the RP-LC retention time is 670 s.
On to `O=C(CN1CCC(COCc2ccccc2)CC1)NCc1ccco1`, for which the RP-LC retention time was found to be 571 s.
To `COc1ccc(-n2c(=O)n(C)c(=O)c3cc(C(=O)Nc4ccccc4)cnc32)cc1` belongs 862 s; to `CCOc1ccc(-c2cn3ccn(-c4cc(C)cc(C)c4)c(=O)c3n2)cc1`, 965 s; to `CCOC(=O)c1cnc2c(C)c(Cl)ccc2c1NCCN(C)C`, 562 s.
As for `Cc1ccc(CNC(=O)CN2CCN(Cc3ccc(F)cc3)C2=O)o1`, the figure is 766 s; as for `CC1CCN(C(=O)c2cc(S(=O)(=O)N3CCC(C(=O)NC4CCCCC4)CC3)cn2C)CC1`, 839 s; as for `Cc1ccc(NC(=O)C2CCCN(c3cn[nH]c(=O)c3)C2)cc1` (stereo unspecified), 679 s.
As for `COc1ccc(-c2noc(CN3C(=O)COc4ccccc43)n2)cc1`, the figure is 953 s.
For the compound `Cc1ccc2nc(CN3CCN(C(=O)NCc4ccc(F)cc4)CC3)oc2c1`, the RP-LC retention time is 690 s.
With `COC(=O)c1ccc(CSc2ncnc3c2cnn3-c2ccc(C)cc2C)o1`, the RP-LC retention time is 1070 s.
`COc1cc(/C=C2/C(=O)N(c3ccccc3)N=C2C)ccc1OCC(=O)Nc1ccccc1` came in with an RP-LC retention time of 1080 s.
As for `Cc1ccc(C(=O)NCC(=O)Nc2nc3ccccc3[nH]2)c(C)c1`, the figure is 639 s; as for `COc1ccc2[nH]c3c(c2c1)CCN(C(=O)C1CC1)C3c1ccc(F)cc1` (stereo unspecified), 949 s.
As for `Cc1csc(NC(=O)Cn2ccc3ccc(-c4nnc(C)o4)cc32)n1`, the figure is 716 s; as for `CCNC(=O)Cn1c(=O)c2cnc(-c3ccc(Cl)cc3)nc2n(C)c1=O`, 927 s.
As for `COc1ccc2c(c1)CCc1sc(NC(=O)c3ccc(OC)c(Br)c3)nc1-2`, the figure is 1210 s.
Regarding `CCCOc1ccc(CNC(=O)C2CCCN(c3ncnc4c3oc3ccccc34)C2)cc1` (stereo unspecified), the RP-LC retention time worked out at 889 s.
As for `CCOc1cccc(CNS(=O)(=O)c2cc3c(s2)CCN(C(=O)C2CCC2)C3)c1`, the figure is 940 s; as for `COc1cccc(CNC(=O)c2nnc(-c3ccc(S(=O)(=O)N(C)C)cc3)o2)c1OC`, 829 s.
On to `CCn1cc(CC(=O)Nc2ccc(OC)cc2)c2cccnc21`, for which the RP-LC retention time came to 696 s.
The compound `Cc1nc(CCNS(=O)(=O)c2ccc(Oc3ccccc3)cc2)cs1` returned an RP-LC retention time of 845 s.
As for `Nc1cccc(-c2nc3ccccc3[nH]2)c1`, the RP-LC retention time is 532 s.
As for `Cc1ccc(-c2cn3c(CC(=O)Nc4ccc(F)cc4F)csc3n2)cc1C`, the figure is 861 s.
Turning to `O=C(C1CCCN(c2ccc(Sc3ccc(Br)cc3)nn2)C1)N1CCSCC1` (stereo unspecified), the RP-LC retention time worked out at 932 s.
For `Cc1ccc2[nH]cc(CCN3CC(C(=O)Nc4ccc5c(c4)OCO5)CC3=O)c2c1` (stereo unspecified), the RP-LC retention time is 783 s.
To `c1cc2nncn2nc1NC1CCCCC1` belongs 790 s.
For the compound `CCOc1ccccc1NC(=O)C1CCN(S(=O)(=O)c2cn(C)cn2)CC1`, the RP-LC retention time amounted to 868 s.
As for `O=C(C1=CCN(Cc2cccc(F)c2)CC1)N1CCN(c2ccccc2F)CC1`, the figure is 666 s; as for `O=C(Cc1ccccc1Cl)NCC1CCN(C(=O)c2ccccc2F)CC1`, 722 s.
For `O=C(CSc1nc(-c2cccc([N+](=O)[O-])c2)cs1)N1CCOCC1`, the RP-LC retention time was 756 s.
To `CCCCNC(=O)Cn1c(=O)cc(-c2nc(C3CC3)no2)c2ccccc21` belongs 874 s; to `COc1ccc(NC(=O)N(C)CCc2noc(COc3ccc(F)cc3)n2)cc1OC`, 801 s; to `Cc1c(-c2noc(-c3ccccc3F)n2)nnn1Cc1ccc(F)cc1`, 1030 s.
`Cc1ccsc1C(=O)Nc1ccc(N2CCN(c3ccccc3)C2=O)nc1`: the RP-LC retention time worked out at 893 s.
On to `COc1ccc2c(c1)C=C(C(=O)Nc1ccc(OC)cc1OC)C=CO2`, for which the RP-LC retention time amounted to 699 s.
To `CCCn1cc(CCNS(=O)(=O)c2ccc(Cl)c(Cl)c2)c2cccnc21` belongs 1000 s; to `COc1ccc(OCc2noc(CNS(=O)(=O)Cc3ccccc3)n2)cc1`, 824 s; to `CCc1ccc(S(=O)(=O)N2CCc3nc(-c4ccccc4)ncc3C2)cc1`, 1160 s.
For `CS(=O)(=O)N1C[C@@H](COc2cccnc2)[C@H](c2ccccn2)C1`, the RP-LC retention time was found to be 554 s.
As for `CCCn1cc(CCNS(=O)(=O)c2c(C)noc2C)c2cccnc21`, the figure is 779 s; as for `COc1ccc(OCc2nn3c(COc4ccc(F)cc4)nnc3s2)cc1`, 928 s.
To `O=C1NC2(CCN(C(=O)NCCc3ccccc3)CC2)Nc2cc(Cl)ccc21` belongs 766 s; to `CCOc1ccc(CC(=O)Nc2ccc3c(c2)Sc2ncccc2C(=O)N3C)cc1`, 931 s.
In the case of `O=C(c1ccc(F)cc1)N1CCC2(CC1)OCC(C(=O)N1CCOCC1)N2C(=O)c1cccc(F)c1` (stereo unspecified), the RP-LC retention time worked out at 679 s.
Turning to `COc1ccc(CNC(=O)C2CCN(c3ccc(SCc4ccccc4)nn3)CC2)cc1`, the RP-LC retention time is 742 s.
To `O=C(c1cccs1)N1CCCC1c1nc(-c2ccccc2)no1` (stereo unspecified) belongs 946 s; to `Cc1cc(=O)n(CC(=O)Nc2ccc(F)cc2C)c(N)n1`, 586 s; to `CCOC(=O)c1c(C)[nH]c(C(=O)N2CCC(C(C)C(=O)NCc3ccccc3C)CC2)c1C` (stereo unspecified), 851 s.
To `COC1CCOC2(CCN(C(=O)Nc3ccc4c(c3)OCCO4)CC2)C1` (stereo unspecified) belongs 690 s.
To `O=C(CN1CCc2ccccc2C1C(=O)N1CCCCC1)NCc1ccccn1` (stereo unspecified) belongs 755 s; to `Cc1ccccc1C(=O)CC1(O)C(=O)Nc2ccc(F)cc21` (stereo unspecified), 730 s.
Consider `Cc1ccccc1S(=O)(=O)N1CCC(CCC(=O)NC2CC2)CC1`, for which the RP-LC retention time amounted to 791 s.
As to `CSc1cccc(NC(=O)C2CCN(c3nccc(C)n3)CC2)c1`, the RP-LC retention time is 700 s.
To `COc1ccc(Cl)cc1S(=O)(=O)NCCc1cn(CC(C)C)c2ncccc12` belongs 987 s; to `CCCN(CC1CCOC1)C(=O)c1cc(Cl)ccc1F` (stereo unspecified), 844 s.
`O=c1ccc(-c2nc(-c3ccc(F)cc3)no2)nn1Cc1cc(F)cc(F)c1` yielded an RP-LC retention time of 1110 s.
As for `COc1ccc(OC)c(NC(=O)N2CCC(N3CCN(Cc4ccc(C)cc4)C(=O)C3=O)CC2)c1`, the figure is 758 s; as for `O=C(Nc1ccc(C(F)(F)F)cc1)c1cnc(-c2ccc(F)cc2)nc1-c1ccncc1`, 1070 s.
